{"source": "ChEMBL document CHEMBL1773059", "about": "“NMS-P937, a 4,5-dihydro-1H-pyrazolo[4,3-h]quinazoline derivative as potent and selective Polo-like kinase 1 inhibitor” (Bioorg Med Chem Lett, 2011)", "key": {"[1]": {"molecular_target": "Fibroblast growth factor receptor 1 (Homo sapiens, UniProt P11362)", "experiment": "Inhibition of FGFR1 assessed as [33P]gamma-ATP incorporation into substrate after 60 mins by gamma counting"}, "[2]": {"molecular_target": "Activated CDC42 kinase 1 (Homo sapiens, UniProt Q07912)", "experiment": "Inhibition of ACK1 assessed as [33P]gamma-ATP incorporation into substrate after 60 mins by gamma counting"}, "[3]": {"molecular_target": "Aurora kinase B (Homo sapiens, UniProt Q96GD4)", "experiment": "Inhibition of Aur-B assessed as [33P]gamma-ATP incorporation into substrate after 60 mins by gamma counting"}, "[4]": {"molecular_target": "Tyrosine-protein kinase SYK (Homo sapiens, UniProt P43405)", "experiment": "Inhibition of Syk assessed as [33P]gamma-ATP incorporation into substrate after 60 mins by gamma counting"}, "[5]": {"tested_on": "HCT-116", "experiment": "Antitumor activity against human HCT116 cells xenografted in CD1 nu/nu mouse assessed as tumor growth inhibition at 45 mg/kg, iv BID administered on days 1 to 3 in weekly scheduling for 2 cycles measured on day 24", "assay_type": "functional", "conditions": "HCT-116, 576 h, read-out: TGI"}, "[6]": {"molecular_target": "Vascular endothelial growth factor receptor 3 (Homo sapiens, UniProt P35916)", "sequence (P35916 whole entry)": "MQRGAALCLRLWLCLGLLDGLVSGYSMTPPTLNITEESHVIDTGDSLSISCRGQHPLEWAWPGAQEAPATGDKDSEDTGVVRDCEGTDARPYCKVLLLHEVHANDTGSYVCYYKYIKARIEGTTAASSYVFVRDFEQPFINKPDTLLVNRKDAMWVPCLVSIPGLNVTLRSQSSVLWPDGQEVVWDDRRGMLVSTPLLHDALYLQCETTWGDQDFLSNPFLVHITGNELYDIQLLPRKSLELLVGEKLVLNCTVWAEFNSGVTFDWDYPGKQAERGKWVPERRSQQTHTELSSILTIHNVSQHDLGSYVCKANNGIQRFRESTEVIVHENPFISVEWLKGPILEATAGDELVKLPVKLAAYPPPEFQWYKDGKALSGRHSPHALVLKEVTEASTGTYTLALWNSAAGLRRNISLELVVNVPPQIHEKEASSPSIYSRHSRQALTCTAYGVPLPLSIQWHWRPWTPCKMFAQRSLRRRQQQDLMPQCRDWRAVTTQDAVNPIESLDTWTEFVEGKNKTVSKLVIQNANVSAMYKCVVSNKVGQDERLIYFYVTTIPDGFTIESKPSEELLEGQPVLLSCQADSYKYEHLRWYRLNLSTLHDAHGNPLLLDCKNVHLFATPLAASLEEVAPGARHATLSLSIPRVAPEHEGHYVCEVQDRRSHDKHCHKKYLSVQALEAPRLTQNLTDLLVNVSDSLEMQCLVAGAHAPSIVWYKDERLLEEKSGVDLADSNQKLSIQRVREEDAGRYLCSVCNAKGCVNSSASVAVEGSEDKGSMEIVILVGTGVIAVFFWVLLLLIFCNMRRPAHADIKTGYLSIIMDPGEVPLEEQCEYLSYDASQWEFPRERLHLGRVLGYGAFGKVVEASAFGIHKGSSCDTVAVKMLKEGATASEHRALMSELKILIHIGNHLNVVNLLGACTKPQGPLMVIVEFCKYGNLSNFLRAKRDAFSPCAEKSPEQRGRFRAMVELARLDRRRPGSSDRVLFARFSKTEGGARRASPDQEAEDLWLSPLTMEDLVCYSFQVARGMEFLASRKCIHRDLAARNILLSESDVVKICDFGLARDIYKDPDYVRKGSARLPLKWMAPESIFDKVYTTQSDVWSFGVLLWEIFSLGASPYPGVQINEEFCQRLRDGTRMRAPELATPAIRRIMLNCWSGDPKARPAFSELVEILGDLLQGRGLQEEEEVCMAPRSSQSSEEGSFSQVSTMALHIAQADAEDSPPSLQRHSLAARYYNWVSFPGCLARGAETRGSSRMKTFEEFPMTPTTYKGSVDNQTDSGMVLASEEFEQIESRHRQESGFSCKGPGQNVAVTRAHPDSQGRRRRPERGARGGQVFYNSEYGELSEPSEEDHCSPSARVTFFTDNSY", "experiment": "Inhibition of VEGFR3 assessed as [33P]gamma-ATP incorporation into substrate after 60 mins by gamma counting"}, "[7]": {"molecular_target": "Serine/threonine-protein kinase pim-2 (Homo sapiens, UniProt Q9P1W9)", "sequence (Q9P1W9 whole entry)": "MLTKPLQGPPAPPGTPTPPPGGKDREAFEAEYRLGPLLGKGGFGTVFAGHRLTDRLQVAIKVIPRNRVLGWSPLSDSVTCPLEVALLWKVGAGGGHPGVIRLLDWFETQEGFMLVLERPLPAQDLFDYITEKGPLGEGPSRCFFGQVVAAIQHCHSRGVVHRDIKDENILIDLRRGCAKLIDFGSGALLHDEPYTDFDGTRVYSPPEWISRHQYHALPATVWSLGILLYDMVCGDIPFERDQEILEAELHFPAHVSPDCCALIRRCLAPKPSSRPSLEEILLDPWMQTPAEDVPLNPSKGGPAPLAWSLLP", "experiment": "Inhibition of PIM2 assessed as [33P]gamma-ATP incorporation into substrate after 60 mins by gamma counting"}, "[8]": {"molecular_target": "Protein-tyrosine kinase 6 (Homo sapiens, UniProt Q13882)", "experiment": "Inhibition of BRK assessed as [33P]gamma-ATP incorporation into substrate after 60 mins by gamma counting"}, "[9]": {"molecular_target": "Serine/threonine-protein kinase Nek6 (Homo sapiens, UniProt Q9HC98)", "experiment": "Inhibition of NEK6 assessed as [33P]gamma-ATP incorporation into substrate after 60 mins by gamma counting"}, "[10]": {"molecular_target": "Tyrosine-protein kinase Lyn (Homo sapiens, UniProt P07948)", "sequence (P07948 whole entry)": "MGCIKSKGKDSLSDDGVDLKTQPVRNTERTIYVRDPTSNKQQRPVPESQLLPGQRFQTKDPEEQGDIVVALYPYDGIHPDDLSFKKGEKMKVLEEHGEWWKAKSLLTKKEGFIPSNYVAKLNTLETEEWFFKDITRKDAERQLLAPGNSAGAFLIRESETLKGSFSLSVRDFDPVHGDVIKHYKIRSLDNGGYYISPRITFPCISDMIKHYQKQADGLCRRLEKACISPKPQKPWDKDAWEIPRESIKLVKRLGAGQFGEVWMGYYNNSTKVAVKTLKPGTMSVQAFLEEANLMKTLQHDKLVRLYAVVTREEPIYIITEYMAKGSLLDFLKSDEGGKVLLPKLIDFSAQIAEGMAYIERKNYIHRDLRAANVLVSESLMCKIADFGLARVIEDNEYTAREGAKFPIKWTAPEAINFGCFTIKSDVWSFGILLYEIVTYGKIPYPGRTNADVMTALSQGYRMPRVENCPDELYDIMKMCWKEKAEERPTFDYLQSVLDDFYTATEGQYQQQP", "experiment": "Inhibition of LYN assessed as [33P]gamma-ATP incorporation into substrate after 60 mins by gamma counting"}, "[11]": {"tested_on": "Mus musculus", "experiment": "Toxicity in CD1 nu/nu mouse xenografted with human HCT116 cells assessed as mortality at 90 mg/kg, po BID administered on days 1 to 2 in weekly scheduling for 4 cycles", "assay_type": "organism-based, HCT-116", "design": "dose 90 mg/kg, route oral", "conditions": "in vivo"}, "[12]": {"tested_on": "Mus musculus", "experiment": "Toxicity in CD1 nu/nu mouse xenografted with human HCT116 cells assessed as reversible body weight loss at 120 mg/kg, po once daily administered on days 1 to 2 in weekly scheduling for 4 cycles measured on day 29", "conditions": "in vivo"}, "[13]": {"experiment": "Inhibition of SULU1 assessed as [33P]gamma-ATP incorporation into substrate after 60 mins by gamma counting"}, "[14]": {"molecular_target": "Serine/threonine-protein kinase tousled-like 2 (Homo sapiens, UniProt Q86UE8)", "experiment": "Inhibition of TLK2 assessed as [33P]gamma-ATP incorporation into substrate after 60 mins by gamma counting"}, "[15]": {"molecular_target": "Glycogen synthase kinase-3 beta (Homo sapiens, UniProt P49841)", "sequence (P49841 whole entry)": "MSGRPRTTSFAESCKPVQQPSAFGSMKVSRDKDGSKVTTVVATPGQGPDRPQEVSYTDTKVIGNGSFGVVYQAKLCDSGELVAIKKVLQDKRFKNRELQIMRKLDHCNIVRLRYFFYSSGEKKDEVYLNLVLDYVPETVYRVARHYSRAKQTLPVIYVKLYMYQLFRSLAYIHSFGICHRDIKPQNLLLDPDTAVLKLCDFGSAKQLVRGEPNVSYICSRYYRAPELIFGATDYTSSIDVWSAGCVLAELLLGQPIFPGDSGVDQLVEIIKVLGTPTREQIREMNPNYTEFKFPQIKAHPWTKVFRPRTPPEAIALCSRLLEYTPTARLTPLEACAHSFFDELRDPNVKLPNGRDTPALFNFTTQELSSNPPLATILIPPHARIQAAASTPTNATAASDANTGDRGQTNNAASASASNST", "experiment": "Inhibition of GSK3-beta assessed as [33P]gamma-ATP incorporation into substrate after 60 mins by gamma counting"}, "[16]": {"molecular_target": "Serine/threonine-protein kinase NIM1 (Homo sapiens, UniProt Q8IY84)", "experiment": "Inhibition of NIM1 assessed as [33P]gamma-ATP incorporation into substrate after 60 mins by gamma counting"}, "[17]": {"tested_on": "HCT-116", "experiment": "Antitumor activity against human HCT116 cells xenografted in CD1 nu/nu mouse assessed as tumor growth inhibition at 60 mg/kg, po administered once daily for 1 to 10 days measured on day 23", "assay_type": "functional", "conditions": "read-out: TGI"}, "[18]": {"molecular_target": "Non-receptor tyrosine-protein kinase TYK2 (Homo sapiens, UniProt P29597)", "sequence (P29597 whole entry)": "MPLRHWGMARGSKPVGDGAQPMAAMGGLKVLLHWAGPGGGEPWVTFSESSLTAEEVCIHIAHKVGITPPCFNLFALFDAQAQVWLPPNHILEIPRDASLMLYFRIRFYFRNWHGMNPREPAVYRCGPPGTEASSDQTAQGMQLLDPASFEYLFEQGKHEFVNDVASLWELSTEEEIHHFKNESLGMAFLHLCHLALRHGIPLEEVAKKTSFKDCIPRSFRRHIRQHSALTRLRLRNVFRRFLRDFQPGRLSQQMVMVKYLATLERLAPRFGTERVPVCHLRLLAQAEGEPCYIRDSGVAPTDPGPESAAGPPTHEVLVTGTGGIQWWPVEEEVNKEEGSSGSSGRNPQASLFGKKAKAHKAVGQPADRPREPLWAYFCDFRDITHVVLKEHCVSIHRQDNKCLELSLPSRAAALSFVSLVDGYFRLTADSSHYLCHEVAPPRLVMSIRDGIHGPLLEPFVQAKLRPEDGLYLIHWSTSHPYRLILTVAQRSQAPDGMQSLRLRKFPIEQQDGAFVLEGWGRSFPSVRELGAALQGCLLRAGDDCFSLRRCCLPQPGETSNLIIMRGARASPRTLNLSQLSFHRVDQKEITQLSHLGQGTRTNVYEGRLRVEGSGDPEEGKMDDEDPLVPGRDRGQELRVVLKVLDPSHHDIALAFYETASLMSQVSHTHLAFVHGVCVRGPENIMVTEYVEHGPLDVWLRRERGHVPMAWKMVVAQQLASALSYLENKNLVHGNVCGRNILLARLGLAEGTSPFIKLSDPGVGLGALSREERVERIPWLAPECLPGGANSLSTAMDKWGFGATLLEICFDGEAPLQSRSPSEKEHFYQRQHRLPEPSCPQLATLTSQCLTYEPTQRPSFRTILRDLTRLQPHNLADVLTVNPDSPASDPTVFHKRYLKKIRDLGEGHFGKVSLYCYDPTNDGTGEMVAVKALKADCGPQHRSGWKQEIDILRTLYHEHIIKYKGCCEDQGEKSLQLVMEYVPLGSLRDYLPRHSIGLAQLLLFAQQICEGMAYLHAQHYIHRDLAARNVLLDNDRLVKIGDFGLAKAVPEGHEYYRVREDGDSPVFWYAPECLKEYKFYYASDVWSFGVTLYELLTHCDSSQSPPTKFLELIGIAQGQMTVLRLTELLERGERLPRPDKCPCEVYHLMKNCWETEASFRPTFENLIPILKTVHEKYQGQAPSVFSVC", "experiment": "Inhibition of TYK2 assessed as [33P]gamma-ATP incorporation into substrate after 60 mins by gamma counting"}, "[19]": {"molecular_target": "Serine/threonine-protein kinase haspin (Homo sapiens, UniProt Q8TF76)", "experiment": "Inhibition of Haspin assessed as [33P]gamma-ATP incorporation into substrate after 60 mins by gamma counting"}, "[20]": {"molecular_target": "MAP kinase-interacting serine/threonine-protein kinase 2 (Homo sapiens, UniProt Q9HBH9)", "experiment": "Inhibition of MNK2 assessed as [33P]gamma-ATP incorporation into substrate after 60 mins by gamma counting"}, "[21]": {"molecular_target": "Focal adhesion kinase 1 (Homo sapiens, UniProt Q05397)", "experiment": "Inhibition of FAK assessed as [33P]gamma-ATP incorporation into substrate after 60 mins by gamma counting"}, "[22]": {"tested_on": "HCT-116", "experiment": "Antitumor activity against human HCT116 cells xenografted in CD1 nu/nu mouse assessed as tumor growth inhibition at 120 mg/kg, po once daily administered on days 1 to 2 daily in weekly scheduling for 4 cycles measured on day 36", "conditions": "HCT-116, po, 864 h, read-out: TGI"}, "[23]": {"tested_on": "Mus musculus", "experiment": "Toxicity in CD1 nu/nu mouse xenografted with human HCT116 cells assessed as reversible body weight loss at 45 mg/kg, iv BID administered on days 1 to 3 in weekly scheduling for 2 cycles measured on day 15", "assay_type": "organism-based, HCT-116", "design": "dose 45 mg/kg, route intravenous", "conditions": "in vivo"}, "[24]": {"molecular_target": "CDC7/DBF4 (Cell division cycle 7-related protein kinase/Activator of S phase kinase) (Homo sapiens, UniProt O00311)", "sequence (Q9UBU7 whole entry)": "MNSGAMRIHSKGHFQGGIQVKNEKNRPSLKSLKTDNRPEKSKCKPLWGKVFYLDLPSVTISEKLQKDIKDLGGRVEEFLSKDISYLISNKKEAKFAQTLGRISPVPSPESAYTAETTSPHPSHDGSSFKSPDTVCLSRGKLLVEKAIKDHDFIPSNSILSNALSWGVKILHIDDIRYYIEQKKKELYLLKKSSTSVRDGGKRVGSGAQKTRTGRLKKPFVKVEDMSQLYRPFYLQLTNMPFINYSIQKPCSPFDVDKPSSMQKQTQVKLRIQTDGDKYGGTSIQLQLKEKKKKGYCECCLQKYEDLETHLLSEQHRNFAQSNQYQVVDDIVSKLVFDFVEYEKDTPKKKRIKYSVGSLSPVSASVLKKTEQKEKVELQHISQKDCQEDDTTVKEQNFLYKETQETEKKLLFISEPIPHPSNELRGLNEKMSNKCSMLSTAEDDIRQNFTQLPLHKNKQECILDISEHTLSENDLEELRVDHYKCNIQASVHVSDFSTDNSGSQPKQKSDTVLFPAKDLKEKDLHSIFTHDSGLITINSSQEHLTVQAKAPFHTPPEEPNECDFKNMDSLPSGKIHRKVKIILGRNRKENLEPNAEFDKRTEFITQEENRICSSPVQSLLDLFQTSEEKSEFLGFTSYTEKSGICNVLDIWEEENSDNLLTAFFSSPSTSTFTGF", "sequence (O00311 whole entry)": "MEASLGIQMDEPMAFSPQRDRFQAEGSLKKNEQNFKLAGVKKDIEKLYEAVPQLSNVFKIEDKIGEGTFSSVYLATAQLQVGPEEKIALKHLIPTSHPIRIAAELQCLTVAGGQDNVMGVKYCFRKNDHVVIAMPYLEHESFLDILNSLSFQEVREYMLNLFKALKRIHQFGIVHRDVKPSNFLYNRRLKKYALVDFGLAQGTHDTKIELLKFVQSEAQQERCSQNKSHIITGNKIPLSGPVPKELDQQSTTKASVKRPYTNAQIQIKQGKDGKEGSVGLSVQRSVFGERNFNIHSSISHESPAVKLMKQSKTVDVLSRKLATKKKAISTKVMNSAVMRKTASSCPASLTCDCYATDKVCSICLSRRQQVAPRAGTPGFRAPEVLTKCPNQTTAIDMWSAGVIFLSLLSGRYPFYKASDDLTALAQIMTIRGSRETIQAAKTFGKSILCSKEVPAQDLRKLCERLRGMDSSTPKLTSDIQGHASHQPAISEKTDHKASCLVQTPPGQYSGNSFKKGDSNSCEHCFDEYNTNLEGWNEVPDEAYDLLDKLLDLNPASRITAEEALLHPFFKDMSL", "experiment": "Inhibition of CDC7/DBF4 assessed as [33P]gamma-ATP incorporation into substrate after 60 mins by gamma counting", "assay_type": "protein-complex assay"}, "[25]": {"molecular_target": "Epidermal growth factor receptor (Homo sapiens, UniProt P04626+P00533+Q15303+P21860)", "experiment": "Inhibition of EGFR1 assessed as [33P]gamma-ATP incorporation into substrate after 60 mins by gamma counting", "assay_type": "protein assay"}, "[26]": {"molecular_target": "Inhibitor of nuclear factor kappa-B kinase subunit beta (Homo sapiens, UniProt O14920)", "experiment": "Inhibition of IKK2 assessed as [33P]gamma-ATP incorporation into substrate after 60 mins by gamma counting"}, "[27]": {"experiment": "Intrinsic clearance in rat hepatocytes at 1 uM", "assay_type": "ADME, cell-based, Liver, Hepatocyte"}, "[28]": {"molecular_target": "Cyclin-dependent kinase 2/cyclin A (Homo sapiens, UniProt P24941)", "experiment": "Inhibition of CDK2/CYCA assessed as [33P]gamma-ATP incorporation into substrate after 60 mins by gamma counting", "assay_type": "protein-complex assay"}, "[29]": {"molecular_target": "Mitotic checkpoint serine/threonine-protein kinase BUB1 (Homo sapiens, UniProt O43683)", "experiment": "Inhibition of BUB1 assessed as [33P]gamma-ATP incorporation into substrate after 60 mins by gamma counting"}, "[30]": {"molecular_target": "Protein kinase C beta type (Homo sapiens, UniProt P05771)", "experiment": "Inhibition of PKCbeta assessed as [33P]gamma-ATP incorporation into substrate after 60 mins by gamma counting"}, "[31]": {"molecular_target": "Cyclin-dependent kinase 2/cyclin E1 (Homo sapiens, UniProt P24941)", "experiment": "Inhibition of CDK2/CYCE assessed as [33P]gamma-ATP incorporation into substrate after 60 mins by gamma counting", "assay_type": "protein-complex assay"}, "[32]": {"molecular_target": "Mitogen-activated protein kinase 14 (Homo sapiens, UniProt Q16539)", "experiment": "Inhibition of P38alpha assessed as [33P]gamma-ATP incorporation into substrate after 60 mins by gamma counting"}, "[33]": {"molecular_target": "Vascular endothelial growth factor receptor 2 (Homo sapiens, UniProt P35968)", "experiment": "Inhibition of VEGFR2 assessed as [33P]gamma-ATP incorporation into substrate after 60 mins by gamma counting"}}}
{"smiles": "CN1CCN(c2ccc(OC(F)(F)F)c(Nc3ncc4c(n3)-c3c(c(C(N)=O)nn3CCO)CC4)c2)CC1", "note": "[ONVANSERTIB]", "values": [{"measurement": "IC50", "setting": "[1]", "result": "> 10", "unit": "µM"}, {"measurement": "IC50", "setting": "[2]", "result": "> 10", "unit": "µM"}, {"measurement": "IC50", "setting": "[3]", "result": "> 10", "unit": "µM"}, {"measurement": "IC50", "setting": "[4]", "result": "> 10", "unit": "µM"}, {"measurement": "inhibition in vivo at 45 mg/kg", "setting": "[5]", "result": 83, "unit": "%"}, {"measurement": "IC50", "setting": "[6]", "result": "> 10", "unit": "µM"}, {"measurement": "IC50", "setting": "[7]", "result": "> 10", "unit": "µM"}, {"measurement": "IC50", "setting": "[8]", "result": "> 10", "unit": "µM"}, {"measurement": "IC50", "setting": "[9]", "result": "> 10", "unit": "µM"}, {"measurement": "IC50", "setting": "[10]", "result": "> 10", "unit": "µM"}, {"measurement": "Activity", "setting": "[11]", "result": "Non-toxic"}, {"measurement": "Activity", "setting": "[12]", "result": 18, "unit": "%"}, {"measurement": "IC50", "setting": "[13]", "result": "> 10", "unit": "µM"}, {"measurement": "IC50", "setting": "[14]", "result": "> 10", "unit": "µM"}, {"measurement": "IC50", "setting": "[15]", "result": "> 10", "unit": "µM"}, {"measurement": "IC50", "setting": "[16]", "result": "> 10", "unit": "µM"}, {"measurement": "inhibition in vivo at 60 mg/kg", "setting": "[17]", "result": 89, "unit": "%"}, {"measurement": "IC50", "setting": "[18]", "result": "> 10", "unit": "µM"}, {"measurement": "IC50", "setting": "[19]", "result": "> 10", "unit": "µM"}, {"measurement": "IC50", "setting": "[20]", "result": "> 10", "unit": "µM"}, {"measurement": "IC50", "setting": "[21]", "result": "> 10", "unit": "µM"}, {"measurement": "inhibition in vivo at 120 mg/kg", "setting": "[22]", "result": 84, "unit": "%"}, {"measurement": "Activity", "setting": "[23]", "result": 16, "unit": "%"}, {"measurement": "IC50", "setting": "[24]", "result": "> 10", "unit": "µM"}, {"measurement": "IC50", "setting": "[25]", "result": "> 10", "unit": "µM"}, {"measurement": "IC50", "setting": "[26]", "result": "> 10", "unit": "µM"}, {"measurement": "CLint scaled at 1 µM", "setting": "[27]", "result": 165, "unit": "mL/min/kg"}, {"measurement": "IC50", "setting": "[28]", "result": "> 10", "unit": "µM"}, {"measurement": "IC50", "setting": "[29]", "result": "> 10", "unit": "µM"}, {"measurement": "IC50", "setting": "[30]", "result": "> 10", "unit": "µM"}, {"measurement": "IC50", "setting": "[31]", "result": "> 10", "unit": "µM"}, {"measurement": "IC50", "setting": "[32]", "result": "> 10", "unit": "µM"}, {"measurement": "IC50", "setting": "[33]", "result": "> 10", "unit": "µM"}]}
